Results: article PMC8138579, “Screening of Anti-Lipase Components of Artemisia argyi Leaves Based on Spectrum-Effect Relationships and HPLC-MS/MS” (Frontiers in Pharmacology, 2021)
pIC50: −log10 of the molar value.

Target: T1, Porcine pancreatic lipase (type II) (Sus scrofa, UniProt P00591)
T1 construct: gene PNLIP; native commercial porcine pancreas preparation (Sigma-Aldrich, type II), no added colipase stated; human 1LPA used only for docking
T1 sequence (P00591 1-450): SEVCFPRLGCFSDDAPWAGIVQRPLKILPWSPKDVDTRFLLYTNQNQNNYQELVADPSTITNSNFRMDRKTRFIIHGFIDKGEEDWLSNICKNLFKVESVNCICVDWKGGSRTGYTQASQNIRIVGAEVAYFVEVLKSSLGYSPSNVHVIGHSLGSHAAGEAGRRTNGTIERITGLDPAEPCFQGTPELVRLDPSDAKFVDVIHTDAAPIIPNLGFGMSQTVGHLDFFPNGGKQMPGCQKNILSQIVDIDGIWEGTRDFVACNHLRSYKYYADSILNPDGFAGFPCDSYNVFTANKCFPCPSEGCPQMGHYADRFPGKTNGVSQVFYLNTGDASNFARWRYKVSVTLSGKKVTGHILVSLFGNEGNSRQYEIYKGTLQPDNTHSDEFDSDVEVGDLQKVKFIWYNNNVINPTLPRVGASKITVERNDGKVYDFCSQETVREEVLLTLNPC
Assay: fluorometric lipase assay, 4-methylumbelliferone release
Type: biochemical
Description: fluorometric lipase assay, 4-methylumbelliferone release on Porcine pancreatic lipase (type II) | IC50 values of neochlorogenic acid, chlorogenic acid, isochlorogenic acid B and isochlorogenic acid A

| SMILES | pIC50 |
| --- | --- |
| O=C(/C=C/c1ccc(O)c(O)c1)O[C@@H]1C[C@](O)(C(=O)O)C[C@@H](OC(=O)/C=C/c2ccc(O)c(O)c2)[C@H]1O [P8, isochlorogenic acid A] | 3.80 |
| O=C(/C=C/c1ccc(O)c(O)c1)O[C@@H]1C[C@@](O)(C(=O)O)C[C@@H](O)[C@@H]1O [P1, neochlorogenic acid] | 3.37 |
| O=C(/C=C/c1ccc(O)c(O)c1)O[C@@H]1C[C@](O)(C(=O)O)C[C@@H](O)[C@H]1O [P3, chlorogenic acid] | 3.49 |
| O=C(/C=C/c1ccc(O)c(O)c1)O[C@H]1[C@H](O)C[C@](O)(C(=O)O)C[C@H]1OC(=O)/C=C/c1ccc(O)c(O)c1 [P7, isochlorogenic acid B] | 3.63 |
